# Values quoted from earlier work as cited in US20060069157A1, “Method of ameliorating or abrogating the effects of a neurodegenerative disorder, such as Huntington's disease, by sodium butyrate chemotherapy” (U.S. DEPARTMENT OF VETERANS AFFAIRS, priority 2004, published 2006).
# What was measured:
# [1] = test system: transgenic HD mice; settings: cyclodextrin as a carrier; transgenic HD mice (Hockly et al., 2003); cited from earlier work
# [2] = test system: Drosophila model of HD; settings: Drosophila model of HD (Steffan 2001); cited from earlier work
structure (smiles),measurement,setting,value
"O=C(CCCCCCC(=O)Nc1ccccc1)NO [SAHA, suberoylanilide hydroxamic acid]",histone levels,[1],increase histone levels
same,motor performance,[1],improve motor performance
same,photoreceptor neuron degeneration and lethality,[2],slow photoreceptor neuron degeneration and ameliorate lethality
